Results reported in patent US9322049B2, “Activation and activators of SirT6” (CORNELL UNIVERSITY, priority 2009, dated 2016).

Target: T1, SirT6 (Homo sapiens, UniProt Q8N6T7)
T1 construct: The protein expression and purification were the same as the full length SIRT6 as described above; made in house; host or cells: E. coli BL21 Codon-plus RIPL
Experiment: Separation of SIRT6-DNA complex on Ni-NTA resin and Kd of DNA by gel electrophoresis (Example 6)
Type: binding
Experimental: The linearized DNA was incubated with SirT6 and Ni-NTA resin. The resin was washed as described in Materials and Methods, and the complex of SirT6-DNA was dissociated by 1 mM suramin. The parallel experiments were done in the presence of 500 uM H3 peptide. DNA bound to SirT6 was quantified and fit to Michaelis-Menten equation to get Kd of DNA binding to the enzyme. […] The single stranded DNA was incubated with SirT6 and Ni-NTA resin. The resin was washed and the complex of SirT6-ssDNA was dissociated by 1 mM suramin. The parallel experiments were done in the presence of 500 uM H3 peptide. […] The linearized DNA was incubated with SirT6 and Ni-NTA resin with or without H3 peptide. After washing, the resin was incubated with different concentration of surmain. The dissociated DNA was quantified by gel electrophoresis. […] After the resin was washed, DNA was dissociated with 1 mM suramin and quantified by gel electrophoresis. Lane 1, 150 ng circular pSTBlue (C-pSTBlue); Lane 2, 150 ng pSTBlue cut with BamHI (B-pSTBlue); Lane 3, 150 ng pSTBlue cut with EcoRV (E-pSTBlue); Lane 4, circular pSTBlue bound to SirT6; Lane 5, pSTBlue cut with BamHI bound to SirT6; Lane 6, pSTBlue cut with EcoRV bound to SirT6; Lane 7, circular pSTBlue bound to SirT6 in the presence of H3; Lane 8, pSTBlue cut with BamHI bound to SirT6 in the presence of H3; Lane 9, pSTBlue cut with EcoRV bound to SirT6 in the presence of H3; Lane 10, DNA ladder.
25% slurry of Ni-NTA resin was incubated with 5 μM SIRT6 and 500 μM H3 peptide for 1 hour at room temperature, in addition with different concentration of pSTBlue which was linearized with BamHI or different concentration of single stranded DNA, and/or 500 μM H3 peptide. After incubation, the resin was spun at 4,000 rpm for 1 minute, and was washed with 10 fold of resin volume with 10 mM imidazole, 100 mM phosphate buffer, pH 7.5, and then 10 fold volume of resin volume with 20 mM imidazole, 10 mM phosphate buffer, pH 7.5. The SIRT6-DNA complex was separated from the resin by adding 250 mM imidazole, 100 mM phosphate buffer, pH 7.5. […] The DNA bound to SIRT6 was then quantified by DNA gel electrophoresis: Linearized pSTBlue was quantified by 0.8% agarose gel electrophoresis using Tris-acetate acid buffer (1×TAE) run at room temperature; single stranded DNA was quantified by 6% acrylamide gel using Tris-boric acid buffer (1×TBE) run at room temperature. […]
In order to test if SIRT6 distinguished different DNA in the binding, pSTBlue was cut with different enzymes and purified by […]™ III kit (MP Biomedicals, LLC). […] DNA was then dissociated from SIRT6 by adding suramin to a final concentration of 1 mM and quantified by 0.8% agarose gel electrophoresis.

[1] = in the presence of 500 uM H3 peptide

T1 sequence (Q8N6T7 whole entry): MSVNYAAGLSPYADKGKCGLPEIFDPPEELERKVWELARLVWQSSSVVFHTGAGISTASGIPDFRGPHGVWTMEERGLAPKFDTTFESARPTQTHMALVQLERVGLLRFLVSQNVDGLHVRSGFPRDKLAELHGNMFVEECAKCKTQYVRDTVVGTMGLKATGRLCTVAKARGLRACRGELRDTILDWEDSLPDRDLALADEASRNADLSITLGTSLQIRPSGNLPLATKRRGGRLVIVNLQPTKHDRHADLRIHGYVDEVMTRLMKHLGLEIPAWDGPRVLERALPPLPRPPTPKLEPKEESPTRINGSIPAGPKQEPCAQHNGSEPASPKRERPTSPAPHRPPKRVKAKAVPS

ssDNA: ssDNA 5′ GGGGATCCATGAAGATGAGCTTTGCGTTGACT 3′ (SEQ ID NO: 9), Integrated DNA Technologies (DNA, backbone and methylation of C not given here)
Kd of DNA binding to SirT6 (in the absence of H3): 195.5 µg/mL | Vmax of DNA bound to SirT6 (in the absence of H3): 151.7 ng/µL | Kd of DNA binding to SirT6 [1]: 238.8 µg/mL | Vmax of DNA bound to SirT6 [1]: 333.5 ng/µL
